Assay results reported in ChEMBL document CHEMBL1201862, “PubChem BioAssay data set” (2004).
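How tested: cells in 96-well plates exposed to compound for 48 hours at five concentrations. Abbreviation: GI50, concentration required for 50% inhibition of growth.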 Active and inactive are the calls of the source. Rule as the data show it: active = GI50 up to about 1.1 µM and inactive = higher.

How the values were obtained:
Assay in all cases: NCI tumour cell line growth inhibition, 48 h
SW-620 = test system: SW-620
HCC 2998 = test system: HCC 2998
HOP-92 = test system: HOP-92
SF-295 = test system: SF-295
A498 = test system: A498
NCI-H460 = test system: NCI-H460
MDA-N = test system: MDA-N
U-251 = test system: U-251
MDA-MB-435 = test system: MDA-MB-435
Malme-3M = test system: Malme-3M
UO-31 = test system: UO-31
A549 = test system: A549
MOLT-4 = test system: MOLT-4
786-0 = test system: 786-0
PC-3 = test system: PC-3
DU-145 = test system: DU-145
SNB-75 = test system: SNB-75
SF-539 = test system: SF-539
CCRF-CEM = test system: CCRF-CEM

Compound | GI50 (SW-620) | GI50 (HCC 2998) | GI50 (HOP-92) | GI50 (SF-295) | GI50 (A498) | GI50 (NCI-H460) | GI50 (MDA-N) | GI50 (U-251) | GI50 (MDA-MB-435) | GI50 (Malme-3M) | GI50 (UO-31) | GI50 (A549) | GI50 (MOLT-4) | GI50 (786-0) | GI50 (PC-3) | GI50 (DU-145) | GI50 (SNB-75) | GI50 (SF-539) | GI50 (CCRF-CEM)
O=c1[nH]c2nc(S)nc(S)c2[nH]1 | > 100 µM (inactive) | > 100 µM (inactive) | > 100 µM (inactive) | > 100 µM (inactive) | > 100 µM (inactive) | > 100 µM (inactive) | > 100 µM (inactive) | > 100 µM (inactive) | > 100 µM (inactive) | > 100 µM (inactive) | > 100 µM (inactive) | > 100 µM (inactive) | > 100 µM (inactive) | > 100 µM (inactive) | > 100 µM (inactive) |  |  |  | 
COc1ccc(-n2c(-c3ccccc3)cc(-c3cccs3)c2-c2cccs2)cc1 | > 100 µM (inactive) | > 100 µM (inactive) | > 100 µM (inactive) | > 100 µM (inactive) | > 100 µM (inactive) | > 100 µM (inactive) |  | > 100 µM (inactive) | > 100 µM (inactive) |  | > 100 µM (inactive) | 39.4 µM (inactive) | > 100 µM (inactive) | > 100 µM (inactive) |  | > 100 µM (inactive) | 88.9 µM (inactive) | 39.1 µM (inactive) | 0.0818 µM (active)
N#CC1C(=O)NC(=O)C(C#N)C1c1ccc(Cl)c(Cl)c1 (stereo not drawn) | 16.7 µM (inactive) |  | 37.4 µM (inactive) | 40.3 µM (inactive) |  | 30.1 µM (inactive) |  | 23.7 µM (inactive) | 22.7 µM (inactive) | > 100 µM (inactive) | 16.5 µM (inactive) | 49.3 µM (inactive) | 26.9 µM (inactive) | 20.1 µM (inactive) | 28.2 µM (inactive) | 37.5 µM (inactive) | 25.2 µM (inactive) | 19.4 µM (inactive) | 13.6 µM (inactive)
CC1(C)C(C#N)C1C1=C(N2CCOCC2)[C@]2(C)C(OC(=O)c3ccccc3)CC[C@@H]2C1 (stereo partly drawn) | > 100 µM (inactive) | > 100 µM (inactive) | 61.2 µM (inactive) | > 100 µM (inactive) | > 100 µM (inactive) | > 100 µM (inactive) | > 100 µM (inactive) | > 100 µM (inactive) | > 100 µM (inactive) | > 100 µM (inactive) | > 100 µM (inactive) | > 100 µM (inactive) | 34.9 µM (inactive) | > 100 µM (inactive) | > 100 µM (inactive) |  | 20.5 µM (inactive) | > 100 µM (inactive) | 31 µM (inactive)
COC(=O)C1=C(C(=O)OC)SC2(S1)C(C(=O)OC)=C(C(=O)OC)Sc1c2ss/c1=N/C(C)(C)C | 0.622 µM (active) | 1.08 µM (active) | 1.3 µM (inactive) | 14.1 µM (inactive) | 1.92 µM (inactive) | 0.533 µM (active) |  | 1.72 µM (inactive) | 1.55 µM (inactive) | 2.18 µM (inactive) | 1.92 µM (inactive) | 2.43 µM (inactive) | 0.417 µM (active) | 1.31 µM (inactive) | 1.26 µM (inactive) | 0.877 µM (active) | 1.45 µM (inactive) | 1.27 µM (inactive) | 0.345 µM (active)
O=C(OCC(Cl)(Cl)Cl)O[C@@H]1CCCC1(c1ccccc1)c1ccccc1 | > 100 µM (inactive) | 45.4 µM (inactive) |  | > 100 µM (inactive) |  | 71 µM (inactive) | 72.4 µM (inactive) | > 100 µM (inactive) | 24.2 µM (inactive) |  | > 100 µM (inactive) | 65.3 µM (inactive) | 6.81 µM (inactive) | > 100 µM (inactive) | 37.5 µM (inactive) | > 100 µM (inactive) | > 100 µM (inactive) |  | > 100 µM (inactive)
